From PubChem BioAssay AID743276 (Broad Institute, 2014)
Inconclusive results are not listed. Active and inactive are the calls of the source.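 The calls were made as follows: active = compounds whose fitted cell loss curve, in every repeat run, reached half effect below twice the top dose; inconclusive = repeat runs disagree, or runs show weak or poorly fitted drops; inactive = every repeat run called inactive.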

What was measured:
[1] = system: CAPAN-1 cell number, Hoechst imaging, 14 days; assay: CAPAN-1 cell growth inhibition, dose response, imaging, dry powder, set 3 (AID 743276)
[2] = as above; settings: CAPAN-1 cell number, Hoechst imaging, 14 days; at 50 µM (top of the series)

Row | SMILES | AC50 [1] | activity change, negative = fewer cells [2]
1 | CN1CCN(CCCNC(=O)c2cc3c(-c4ccc(Cl)cc4)nn(C)c3s2)CC1 | 10.5 µM | –
2 | CCN1CCN(CCCNC(=O)C2CCN(c3nnc(-n4c(C)ccc4C)s3)CC2)CC1 | 20.5 µM | –
3 | CCN1CCN(C(=S)Nc2ccc3nc(N4CCN(C)CC4)cc(C)c3c2)CC1 | 10.7 µM | –
4 | CN(C)CCCN(C(=O)c1ccc(C(=O)c2ccccc2)cc1)c1nc2cc3c(cc2s1)OCO3 | 12.7 µM | –
5 | CCCCN(CC)CCNC(=O)c1cc2c(-c3ccc(Cl)cc3)nn(C)c2s1 | 3.57 µM | –
6 | Cc1ccc2sc(N(CCCN(C)C)C(=O)c3ccc(S(=O)(=O)N(C)C4CCCCC4)cc3)nc2c1C | 24 µM | –
7 | COc1ccc2oc(C(=O)c3ccccc3)c(NC(=O)CN3CCN(C)CC3)c2c1 | 13.5 µM | –
8 | CCN1CCN(c2cc(C)c3cc(NC(=O)c4ccccn4)ccc3n2)CC1 | 35.6 µM | –
9 | CCN(CC)CCCN(Cc1cc2cc3c(cc2[nH]c1=O)OCO3)C(=S)NCCCN(C)C | – | -1.27% (inactive)
10 | COc1ccccc1Nc1nc(NCCO)c2ccccc2n1 | 24.6 µM | –
11 | COc1ccccc1Nc1nc(NCCCO)c2ccccc2n1 | 31.1 µM | –
12 | C=C1Nc2cc(-c3ccc(Cl)cc3)nn2C(NCCN(C)C)=C1C | 8.39 µM | –
13 | CN(C)CCCNC(=S)N(CCN(C)C)Cc1cc2cc3c(cc2[nH]c1=O)OCCO3 | – | -2.03% (inactive)
14 | CCCN(CCC)CCCNC(=S)Nc1ccc2nc(N3CCN(CC)CC3)cc(C)c2c1 | 22.8 µM | –
15 | Cc1cc(C)n(-c2nc(NCCN(C)C)c3c4c(sc3n2)CCCC4)n1 | 15.4 µM | –
16 | COc1ccc(-c2oc3ncnc(NCCCN4CCOCC4)c3c2-c2ccc(OC)cc2)cc1 | 43.8 µM | –
17 | Cc1ccc2sc(N(CCCN(C)C)C(=O)c3ccc(S(=O)(=O)N(C)Cc4ccccc4)cc3)nc2c1C | 9.25 µM | –
18 | c1ccc(-c2cc(N3CCC(N4CCCC4)CC3)n3nccc3n2)cc1 | 46.1 µM | –
19 | CN(C)CCCNC(=S)NCC(c1ccc(Cl)cc1Cl)c1c[nH]c2ccccc12 (stereo not drawn) | 27.4 µM | –

Row | SMILES | AC50 [1] | activity change, negative = fewer cells [2]
20 | CN(C)CCCN(C(=O)c1nc2ccccc2s1)c1nc2ccc(F)cc2s1 | 17 µM | –
21 | CCCNc1nc(Cl)nc(NCc2cccnc2)n1 | – | -7.79% (inactive)
22 | CCN(CC)CCN(C(=O)C1=COCCO1)c1nc2c(OC)ccc(OC)c2s1 | 47.5 µM | –
23 | Cn1nc(-c2ccc(Cl)cc2)c2cc(C(=O)NCCCN3CCCC3)sc21 | 3.72 µM | –
24 | OCCNc1nc(Nc2ccccc2F)nc2ccccc12 | 32 µM | –
25 | CC1(C)CC(NC(=O)c2ccc(Cl)c(S(=O)(=O)N(Cc3ccccc3)c3ccccc3)c2)CC(C)(C)N1 | 12.8 µM | –
26 | Cc1cc(N2CCN(C)CC2)nc2ccc(NC(=S)NCCCN3CCN(C)CC3)cc12 | 43.7 µM | –
27 | Cc1c(C(=O)Nc2ccc(S(=O)(=O)N(C)C3CCN(C)CC3)cc2)oc2c(Cl)cccc12 | 11.2 µM | –
28 | O=c1c2c(-c3ccccc3)csc2nc2c3ccccc3c(NCCN3CCOCC3)nn12 | – | -15.7% (inactive)
29 | CCCCN(CC)CCCNC(=S)Nc1ccc2nc(N3CCN(C)CC3)cc(C)c2c1 | 37.8 µM | –
30 | CCCN1CCN(CCCNC(=S)Nc2ccc3nc(N4CCN(CC)CC4)cc(C)c3c2)CC1 | 24.7 µM | –
31 | COc1ccc(C2NCCc3c2[nH]c2ccccc32)cc1COc1ccc(F)cc1 (stereo not drawn) | 18.7 µM | –
32 | CCN(CC)CCNC(=S)Nc1ccc2nc(N3CCN(CC)CC3)cc(C)c2c1 | 13.8 µM | –
33 | Cc1cc(C)c2c(c1)c1nnc(SCCN3CCCCC3)nc1n2C | 42.3 µM | –
34 | Cc1cc(C)c2sc(N(CCCN(C)C)C(=O)CN3C(=O)c4ccccc4C3=O)nc2c1 | 22.2 µM | –
35 | Cc1ccc2nc(-c3ccc(NC(=S)NC4CC(C)(C)NC(C)(C)C4)cc3)sc2c1 | 12.1 µM | –
36 | Cc1ccc(C(=O)c2oc3ccc(Cl)cc3c2NC(=O)CN2CCN(C)CC2)cc1 | 9.78 µM | –
37 | CCN1CCc2c(sc(NC(=O)c3ccc(OC)cc3OC)c2C(N)=O)C1 | 32.7 µM | –
38 | CCCCN(CC)CCNC(=O)CCC(=O)Nc1ccc2nc(N3CCN(C)CC3)cc(C)c2c1 | 25.1 µM | –
